Source: ChEMBL document CHEMBL4316584, “All that glitters is not gold: Panning cytotoxic natural products and derivatives with a fused tricyclic backbone by the estimation of their leadlikeness for cancer treatment” (Eur J Med Chem, 2019)
pIC50: −log10 of the molar value.

system: HCT-116; test: Cytotoxicity against human HCT116 cells after 48 hrs by MTT assay; type: functional, cell-based; conditions: HCT-116, 48 h

SMILES	pIC50
CCOC(=O)CN(C)CC1CCc2c(n(C)c3ccccc23)C1=O (stereo unspecified)	4.72
C[C@]1(O)Cc2c(O)c3c(c(O)c2[C@H](O)[C@H]1O)C(=O)C(SCCCO)=C(SCCCO)C3=O	5.51
Cn1c2c(c3ccccc31)CCC(CN1CCOCC1)C2=O (stereo unspecified)	5.33
CCCCCCOc1cccc2c1C(=O)c1c(OCCCCCC)cc(Cn3cnc4c(N)ncnc43)cc1C2=O	5.09
CC1CCN(C2=CC(=O)c3c(O)c4c(c(O)c3C2=O)C[C@](C)(O)[C@H](O)[C@H]4O)CC1	5.49
Cc1nccc2c3ccccc3n(CCCCn3c4ccccc4c4ccnc(C)c43)c12	5.45
Nc1ncnc2c1ncn2Cc1cc(O)c2c(c1)C(=O)c1cccc(O)c1C2=O	5.11
CCCCn1c2c(c3ccccc31)CCC(CN1CCOCC1)C2=O (stereo unspecified)	5.24
Cn1c2c(c3ccccc31)CCC(CN1CCCCC1)C2=O (stereo unspecified)	5.63
CCCCCCNC1=CC(=O)c2c(O)c3c(c(O)c2C1=O)C[C@](C)(O)[C@H](O)C3	5.50
CC(C)=CCn1c2c(c3ccccc31)CCC(CN1CCOCC1)C2=O (stereo unspecified)	5.34
CCN(C)CC1CCc2c(n(C)c3ccccc23)C1=O (stereo unspecified)	4.93
CC1CCN(C2=CC(=O)c3c(O)c4c(c(O)c3C2=O)C[C@](C)(O)[C@H](O)C4)CC1	4.83
O=c1c2ccc(O)c(O)c2oc2cc(O)cc(O)c12	4.73
C[C@]1(O)Cc2c(O)c3c(c(O)c2C[C@H]1O)C(=O)C=C(N1CCCCC1)C3=O	4.79
Cn1c2c(c3ccccc31)CCC(CN1CCCC1)C2=O (stereo unspecified)	4.89
CC(=O)O[C@@H]1[C@H](C)CC(O)=C2C(=O)c3c(ccc(-c4ccc(O)c5c4O[C@@]4(CO)C(=C(O)C[C@@H](C)[C@H]4OC(C)=O)C5=O)c3O)O[C@@]21CO	5.15

SMILES	pIC50
CO[C@H]1[C@H](O)C[C@@H](O[C@@H]2C[C@H](Oc3cc4cc5c(c(O)c4c(O)c3C)C(=O)[C@@H](O[C@H]3C[C@H](O[C@H]4C[C@H](O[C@H]6C[C@@](C)(O)[C@@H](OC(C)=O)[C@H](C)O6)[C@H](O)[C@@H](C)O4)[C@H](O)[C@@H](C)O3)[C@H]([C@H](OC)C(=O)[C@@H](O)[C@@H](C)O)C5)O[C@H](C)[C@H]2OC(C)=O)O[C@@H]1C	6.52
CCSC1=C(SCC)C(=O)c2c(O)c3c(c(O)c2C1=O)C[C@](C)(O)[C@H](O)[C@H]3O	6.02
CC(=O)OC[C@]12Oc3ccc(-c4ccc(O)c5c4O[C@@]4(CO)C(=C(O)C[C@@H](C)[C@H]4OC(C)=O)C5=O)c(O)c3C(=O)C1=C(O)C[C@@H](C)[C@H]2OC(C)=O	5.16
C[C@]1(O)Cc2c(O)c3c(c(O)c2[C@H](O)[C@H]1O)C(=O)C=C(Nc1ccccc1)C3=O	5.32
CN1CCN(CC2CCc3c(n(C)c4ccccc34)C2=O)CC1 (stereo unspecified)	4.86
CCCCCCSC1=C(SCCCCCC)C(=O)c2c(O)c3c(c(O)c2C1=O)C[C@](C)(O)[C@H](O)[C@H]3O	6.13
CNC1=CC(=O)c2c(O)c3c(c(O)c2C1=O)C[C@](C)(O)[C@H](O)C3	4.78
CC(C)=CCc1c(O)cc(O)c2c(=O)c3c(O)cccc3oc12	4.97
C[C@]1(O)Cc2c(O)c3c(c(O)c2[C@H](O)[C@H]1O)C(=O)C=C(NCc1ccc(F)cc1)C3=O	5.31
Cn1c2c(c3ccccc31)CCC(Cn1ccnc1)C2=O (stereo unspecified)	5.51
CCCCCCSC1=C(SCCCCCC)C(=O)c2c(O)c3c(c(O)c2C1=O)C[C@@H](O)[C@@](C)(O)C3	5.53
CCCCSC1=C(SCCCC)C(=O)c2c(O)c3c(c(O)c2C1=O)C[C@@H](O)[C@@](C)(O)C3	5.56
CCCCNC1=CC(=O)c2c(O)c3c(c(O)c2C1=O)C[C@](C)(O)[C@H](O)C3	5.48
O=C1c2cccc(O)c2C(=O)c2c(O)cc(Cn3cc(F)c(=O)[nH]c3=O)cc21	5.55
C[C@]1(O)Cc2c(O)c3c(c(O)c2C[C@H]1O)C(=O)C=C(NCc1ccc(F)cc1)C3=O	5.15
O=c1c2ccc(O)cc2oc2cc(O)cc(O)c12	4.70
O=c1c2ccc(O)c(O)c2oc2c(O)c(O)ccc12	4.73

system: HeLa; test: Cytotoxicity against human HeLa cells after 48 hrs by MTT assay; type: functional, cell-based; conditions: not given

SMILES	pIC50
CC(C)C1=C(O)C(=O)C2=C(C=C[C@H]3C(C)(C)CCC[C@]23C)C1=O	5.18
COc1cc2oc3cc(O)c(OC)c(CC=C(C)C)c3c(=O)c2c(O)c1CC=C(C)C	4.89
CC(C)c1cc2c(cc1O)[C@@]1(C)CCCC(C)(C)[C@@H]1[C@@H](O)C2=O	5.11
Nc1ccc(C(=O)/C=C/c2cc3c([nH]c4ccccc43)c(-c3ccc(F)cc3)n2)cc1	4.73
COc1cc(-c2nc(/C=C/C(=O)c3ccc(N)cc3)cc3c2[nH]c2ccccc23)ccc1F	4.82
COc1cc(-c2nc(/C=C/C(=O)c3ccc(F)cc3)cc3c2[nH]c2ccccc23)cc(OC)c1OC	4.87
COc1ccc(-c2nc(/C=C/C(=O)c3ccc(N)cc3)cc3c2[nH]c2ccccc23)cc1OC	4.87
COc1cc(-c2nc(/C=C/C(=O)c3ccc(O)cc3)cc3c2[nH]c2ccccc23)cc(OC)c1OC	4.90
NCCCCNCCNCc1c2ccccc2c(CNCCNCCCCN)c2ccccc12	4.70
Cc1cc(C)cc(NC(=O)[C@H](C)NC(=S)NC(=O)[C@]2(C)CCC[C@]3(C)c4ccc(C(C)C)cc4CC[C@@H]23)c1	4.73
CC(C)c1cc(C(=O)O)c2c(c1O)O[C@H]1C(C)(C)CCC[C@]21C	4.75
COc1cc(-c2nc(C3CC(c4cccs4)=NN3C(C)=O)cc3c2[nH]c2ccccc23)cc(OC)c1OC (stereo unspecified)	5.35
CC(=O)N1N=C(c2cccs2)CC1c1cc2c([nH]c3ccccc32)c(-c2ccc(F)c(F)c2)n1 (stereo unspecified)	5.06
COc1cc(NC(=O)[C@H](Cc2ccccc2)NC(=S)NC(=O)[C@]2(C)CCC[C@]3(C)c4ccc(C(C)C)cc4CC[C@@H]23)cc(OC)c1OC	4.76
COc1c(O)cc2oc3cc(O)c(C/C=C(/C)CO)c(O)c3c(=O)c2c1CCC(C)(O)CCC=C(C)C (stereo unspecified)	4.76
O=C(/C=C/c1cc2c([nH]c3ccccc32)c(-c2ccc(C(F)(F)F)cc2)n1)c1cccs1	5.02
Cc1cc(C)cc(NC(=O)[C@H](Cc2ccccc2)NC(=S)NC(=O)[C@]2(C)CCC[C@]3(C)c4ccc(C(C)C)cc4CC[C@@H]23)c1	4.80
COc1cc(-c2nc(Cn3cc(CN4C(=O)c5ccc(C)cc5C4=O)nn3)cc3c2[nH]c2ccccc23)cc(OC)c1OC	4.81
COc1ccc(NC(=O)[C@H](Cc2ccccc2)NC(=S)NC(=O)[C@]2(C)CCC[C@]3(C)c4ccc(C(C)C)cc4CC[C@@H]23)cc1	4.81
COc1cc(NC(=O)[C@H](C)NC(=S)NC(=O)[C@]2(C)CCC[C@]3(C)c4ccc(C(C)C)cc4CC[C@@H]23)cc(OC)c1OC	4.74
CC(C)c1ccc2c(c1)CC[C@H]1[C@](C)(C(=O)NC(=S)N[C@@H](Cc3ccccc3)C(=O)Nc3ccccc3Cl)CCC[C@]21C	4.77
CC(=O)N1N=C(c2cccs2)CC1c1cc2c([nH]c3ccccc32)c(-c2ccc(C(F)(F)F)cc2)n1 (stereo unspecified)	4.72
CCOc1ccc(/C=C2\CCc3c([nH]c4ccc(C)cc34)C2=O)cc1OCC	6.10
CC(=O)N1N=C(c2ccco2)CC1c1cc2c([nH]c3ccccc32)c(-c2ccc(F)c(F)c2)n1 (stereo unspecified)	5.47

SMILES	pIC50
Cc1cccc2c1ccc1cc(C(C)CO)c(=O)oc12 (stereo unspecified)	6.07
CCOc1ccc(/C=C2\CCc3c([nH]c4c(C)cccc34)C2=O)cc1OCC	5.82
CC(=O)N1N=C(c2ccc[nH]2)CC1c1cc2c([nH]c3ccccc32)c(-c2ccc(C(F)(F)F)cc2)n1 (stereo unspecified)	5.20
CCOc1ccc(/C=C2\CCc3c([nH]c4ccc(Cl)cc34)C2=O)cc1OCC	5.56
CC(C)c1ccc2c(c1)CC[C@H]1[C@](C)(C(=O)NC(=S)N[C@@H](Cc3ccccc3)C(=O)Nc3ccc(Br)cc3)CCC[C@]21C	4.81
CC(C)c1ccc2c(c1)CC[C@H]1[C@](C)(C(=O)NC(=S)N[C@@H](Cc3ccccc3)C(=O)Nc3ccccc3Br)CCC[C@]21C	4.90
CC(C)c1ccc2c(c1)CC[C@H]1[C@](C)(C(=O)NC(=S)N[C@@H](Cc3ccccc3)C(=O)Nc3cccc4ccccc34)CCC[C@]21C	4.89
COc1cc(-c2nc(/C=C/C(=O)c3cccs3)cc3c2[nH]c2ccccc23)cc(OC)c1OC	5.16
CC(C)c1ccc2c(c1)CC[C@H]1[C@](C)(C(=O)NC(=S)N[C@@H](C)C(=O)Nc3ccccn3)CCC[C@]21C	4.84
CC(C)c1ccc2c(c1)CC[C@H]1[C@](C)(C(=O)NC(=S)N[C@@H](C)C(=O)Nc3ccccc3Cl)CCC[C@]21C	4.70
COc1c(O)cc2oc3cc(O)c(C/C=C(/C)CO)c(O)c3c(=O)c2c1C/C=C(\C)CCCC(C)(C)O	4.78
Cc1ccccc1NC(=O)[C@H](Cc1ccccc1)NC(=S)NC(=O)[C@]1(C)CCC[C@]2(C)c3ccc(C(C)C)cc3CC[C@@H]12	4.75
CC(C)c1ccc2c(c1)CC[C@H]1[C@](C)(C(=O)NC(=S)N[C@@H](C)C(=O)Nc3ccc(Br)cc3)CCC[C@]21C	4.72
Cc1cccc2c1ccc1cc(C(C)C)c(=O)oc12	5.10
CC(C)c1ccc2c(c1)CC[C@H]1[C@](C)(C(=O)NC(=S)N[C@@H](Cc3ccccc3)C(=O)Nc3ccc(Cl)cc3)CCC[C@]21C	4.76
O=C(/C=C/c1cc2c([nH]c3ccccc32)c(-c2ccc(C(F)(F)F)cc2)n1)c1ccc[nH]1	5.14
Cc1ccc(NC(=O)[C@H](Cc2ccccc2)NC(=S)NC(=O)[C@]2(C)CCC[C@]3(C)c4ccc(C(C)C)cc4CC[C@@H]23)cc1	4.72
CC(C)c1ccc2c(c1)CC[C@H]1[C@](C)(C(=O)NC(=S)N[C@@H](Cc3ccccc3)C(=O)Nc3ccccn3)CCC[C@]21C	5.18
C=CCc1cc2oc3cc(OC)cc(O)c3c(=O)c2c(OC)c1O	4.73
CC(C)c1ccc2c(c1)CC[C@H]1[C@](C)(C(=O)NC(=S)N[C@@H](Cc3ccccc3)C(=O)Nc3ccccc3F)CCC[C@]21C	4.73
COc1c(O)cc2oc3cc(O)c(CC=C(C)C)c(O)c3c(=O)c2c1C/C=C(\C)CCC=C(C)C [COWANIN]	4.93
COc1cc2c(=O)c3c(O)c(C/C=C(\C)CCC=C(C)C)c(O)cc3oc2cc1O [COWAXANTHONE]	4.80
CC(C)c1ccc2c(c1)CC[C@H]1[C@](C)(CO)CCC[C@]21C [POMIFERIN A]	4.80
